Patent US10537535B2, “Histone deacetylase inhibitors” (The Regents of the University of California, priority 2015, dated 2020)

How the values were obtained:
[1] = test system: gene expression in the antenna of Drosophila melanogaster; test: RNA-seq transcriptome analysis of Drosophila antennae after exposure or feeding; assay type: in vivo
Text: In order to examine the physiological effects of long-term exposure to an odorant, flies were maintained in vials with circulating volatiles from headspace of a low concentration (1% in paraffin oil) of the odorant diacetyl, which acts on a number of different receptor pathways in Drosophila. In a similar manner to previous odor-exposure studies, flies were exposed to diacetyl for 5 days and performed an RNA-seq analysis of the antennae, which are known odor-detecting organs. The transcriptome was compared with a control group of age-matched flies that were exposed to the headspace of the solvent paraffin oil (PO, FIG. 3A).
Flies were exposed to diacetyl (2,3-Butanedione, B85307, Sigma-Aldrich, St. Louis, Mo.) by placing them in vials in a cylindrical closed container (112 mm diameter×151 mm height) along with an odor-containing glass vial. The odorant was dissolved in 10 mL paraffin oil at 1% dilution. For a given exposure protocol, two groups of flies were prepared: those exposed to 1% diacetyl headspace and those exposed to paraffin oil headspace alone (control flies). Adult male flies aged 1 d were transferred to fly vials containing fresh medium, and put into the container with the odor vial. At the end of the fifth day of exposure, flies were collected, and their antennae were dissected for RNA extraction. All treatments and experiments were performed at room temperature. For the recovery experiment, flies were transferred again to the container containing a glass vial of paraffin oil after 5 days of diacetyl exposure. At the end of the fifth day of recovery, flies were collected, and their antennae were dissected for RNA extraction.
Sodium butyrate (B5887, Sigma-Aldrich) or valproic acid (P4543, Sigma-Aldrich) were dissolved in normal fly food medium at the final concentration of 10 mM. Three groups of flies were prepared: those treated with one of the HDAC inhibitors and those without HDAC inhibitor treatment (control flies). Adult flies aged 1 d were transferred to fly vials containing medium with or without a HDAC inhibitor. At the end of the fifth day of treatment, flies were collected, and their antennae were dissected for RNA extraction. All treatments and experiments were performed at room temperature.
The second and third antennal segments from 40-60 male flies after treatment were carefully hand-dissected from the head, collected in 1.5 ml microfuge tubes kept cold in liquid nitrogen. Antennae were mechanically crushed with disposable RNAse-free plastic pestles, and total RNA was isolated using a Trizol-based protocol. cDNA libraries were prepared from total RNA (300-1000 ng/sample) using the Illumina TruSeq RNA Library Preparation Kit (Illumina Catalog #RS-122-2001). Samples were submitted to the UCR IIGB sequencing core for high-throughput sequencing using the Illumina HiSeq2500 platform. Raw reads were aligned to the Drosophila melanogaster reference genome (dmel-all-chromosome-r5.48.fasta) with Tophat2, and a count table of reads overlapping with exonic regions of genes was generated by the UCR bioinformatics core. The numbers of biological replicates are: 2, day 5 paraffin oil; 1, day 5 diacetyl; 2, day 5 mock; 2, day 5 sodium butyrate; 2, day 5 valproic acid; 2, day 10 paraffin oil recovery; 2, day 10 diacetyl recovery.
The read count table for all the genes were then imported into R and a statistical analysis of differential gene expression using the DESeq package (1.22.0) was performed. […] The gene list analysis was performed using the GO Term Mapper (http://go.princeton.edu/) with Generic GO slim datasets, and the Statistical overrepresentation test was performed using the PANTHER classification (http://www.pantherdb.org/) system with GO complete datasets.
This example investigates the overlap among genes modulated by diacetyl as compared to sodium butyrate and valproic acid, which are known HDAC inhibitors. […]

[2] = test system: pGMR-HTTQ120 flies; test: Huntington's model Drosophila (pGMR-HTTQ120), rhabdomere count by pseudopupil analysis; assay type: in vivo
Text: To investigate the effect of diacetyl on neurodegeneration, Huntington model Drosophila flies (GMR-HTTQ120; expressing human huntington HTTQ120 protein from a GMR promoter) were exposed to odor 1 (diacetyl) at 1% concentration from filter paper for five days as a volatile scent. Following exposure, the omatidia in the eyes of the flies were visualized. […] The number of rhabdomeres present in the omatidia were counted (wildtype flies have 7 rhabdomeres in each omatidia).
When the transgenic flies expressing two copies of the human Huntington with poly-Q repeats (HTTQ120) under control of the eye-specific GMR promoter were raised at 18° C., the number of rhabdomeres in each ommatidium was similar to that of control flies (7) immediately post-eclosion (day 1, FIGS. 8A-8C). […] The mean number of rhabdomeres was reduced from 7 to ˜1 by day 10.
Flies were exposed to diacetyl in a cylindrical container (112 mm diameter×151 mm height). Each container was tightly closed but had 2 holes, one of which connected to an air suction port, and the other to a vial containing either of 5 mL paraffin oil or 5 mL 1% diacetyl in paraffin oil. A gentle suction was applied to pull the headspace from the odor or paraffin oil vials into the cylindrical structure (FIG. 11). pGMR-HTTQ120 flies were maintained at 18° C. Adult flies aged 1 d were transferred to fly vials containing fresh medium, and put into the odor-filled container at room temperature. Paraffin oil and 1% diacetyl solution were prepared and replaced every day. At the end of the fifth day of exposure, half of the flies were collected and subjected to pseudopupil analysis. The remaining flies were transferred to fresh medium and exposed to the odors for an additional 5 days. All treatments and experiments were performed at room temperature.
Pseudopupil Analysis was performed according to a protocol described previously (Song et al., 2013). Flies were decapitated and mounted on a microscope slide by dipping in a drop of nail polish. The arrangement of rhabdomeres in the ommatidia of the compound eyes were analyzed with Axio Imager M2 (Carl Zeiss, Oberkochen, Germany) using a 63× objective, and photographed with Axiocam 506 mono (Carl Zeiss). Six hundred ommatidia from 30 eyes of 15 flies were scored for each condition.

[3] = 5 days, diacetyl 1% headspace, SB/VA 10 mM in food, vs control
[4] = of 125 up-regulated genes, 5 days exposure then 5 days recovery
[5] = out of 125 diacetyl-induced genes

CC(=O)C(C)=O [diacetyl, 2,3-Butanedione]
number of differentially-expressed genes in antennal transcriptome [1, 3]: 202 genes
number of genes down-regulated >2-fold [1, 3]: 77 genes
number of genes up-regulated >2-fold [1, 3]: 125 genes
genes continuing to show increased mRNA abundance after odor removal [1, 4]: 11 genes
genes showing little change after recovery [1, 4]: 38 genes
transcripts showing a reduction with diacetyl recovery [1, 4]: 27 genes
diacetyl down-regulated genes overlapping with those down-regulated in either SB- or VA-treated groups ([1]; out of 77 down-regulated genes): About 28 genes
diacetyl-induced genes overlapping with SB-induced genes [1, 5]: 51 genes
diacetyl-induced genes overlapping with VA-induced genes [1, 5]: 40 genes
rhabdomeres left in the majority of ommatidia ([2]; 1% headspace, after 10 days, solvent controls ~1-2): 2-3 rhabdomeres
rhabdomeres retained in the majority of ommatidia ([2]; 1% headspace, day 5): 6-7 rhabdomeres
rhabdomeres in omatidia vs not exposed flies ([2]; GMR-HTTQ120 flies, 1% from filter paper, five days, FIG. 2A): greater rhabdomeres
inhibition of rhabdomere loss ([2]; volatile headspace of 1% diacetyl in paraffin oil, after eclosion, 25° C.): 50%
